Legend:
[1] = system: HBV genotype D; assay: Anti-HBV properties in persistently infected dHepaRG cells, genotype D (post-infection treatment); format: cell-based, Hepatitis B virus
Experimental: (§1) FIG. 1. Experimental outlines. Treatment schemes: (a) Treatments in pre-infection: dHepaRG cells were treated for 24 h (at day −1) with 100 nM of PreS1 peptide (PreS1-pep) or 10 μM of 1C8, or untreated (NT). At day 0, cells were inoculated with HBV (MOI=250) or with HDV (MOI=25) in the presence of drugs for 24 h. For the tenofovir control (TDF at 10 μM), cells were treated at day 1 and 4 post-infection. Supernatant and cells were harvested at day 7 post-infection. (b) Treatments in post-infection: dHepaRG cells were inoculated with HBV (MOI=250) or with HDV (MOI=25). At days 4, 7 and 9 post infection, cells were treated with TDF 10 μM, lamivudine (3TC) at 10 μM, 1C8 10 μM or untreated (NT). Supernatant and cells were harvested at day 11 postinfection.
(§2) FIG. 5. Anti-HBV properties of 1C8 in persistently infected dHepaRG cells: genotype D. Differentiated HepaRG were infected with HBV genotype D at a MOI of 100 vge/cell or HDV genotype 1 at a MOI of 10 vge/cell for 7 days before being treated trice every 2-3 days with indicated molecules at a concentration of 10 microM. A) Total DNA and RNA were extracted from cells and subjected to qPCR and RTqPCR to detect HBV cccDNA, total HBV RNA or pregenomic HBV RNA. B) HBs and HBe secreted antigens in supernatant were quantified by ELISA, whereas HBV DNA contained in virions was quantified by qPCR after viral nucleic acid extraction from supernatant. C) Intracellular HDV RNA was quantified by RTqPCR after total RNA extraction from cells. D) Viability was monitored in 1C8-treated (or control treated; puromycin is a positive toxic molecule) cells by CellTiter-Glo® luminescent cell viability assay. Results are the mean+SEM of n=3 performed with 3 different differentiations of HepaRG. Statistics were done by two-tailed Mann-Whitney test, with following significativity: *P<0.05, **P<0.01, ***P<0.001, ****P<0.0001. nd=not determined
Human liver progenitor HepaRG cells were cultured in Williams medium (ThermoFisher) supplemented with 10% of FBS (Perbio), Penicillin/Streptomycin (500 U/mL), glutamine (2 mM), hydrocortisone Upjohn (2.5 mg/L; Serb laboratory), insulin (5 mg/L; Sigma Aldrich). For the differentiation process 2% of DMSO was added to the above-described supplemented Williams medium. […] The multiplicity of infection (MOI; expressed as virus genome equivalent/cell) is indicated in the figure legends, but was of 100 vge/cell if not precised.
(§3) From cell culture supernatants, secreted HBe and HBs antigens were quantified by ELISA, using a chemiluminescence immunoassay kit (Autobio, China) following manufacturer's instructions. […]
A HBV standard was used for quantification of extracellular viral DNA and RNA. […]

[2] = system: HBV genotype C; assay: Anti-HBV properties in persistently infected dHepaRG cells, genotype C; format: cell-based, Hepatitis B virus; settings: 10 microM three times
Experimental: as §1, with “Supernatant and cells were harvested at day 11 postinfection.” left out
FIG. 6. […] B) HBs and HBe secreted antigens in supernatant were quantified by ELISA, whereas HBV DNA contained in virions was quantified by qPCR after viral nucleic acid extraction from supernatant. […] Statistics were done by two-tailed Mann-Whitney test, with following significativity: *P<0.05, **P<0.01, ***P<0.001, ****P<0.0001. nd=not determined. […]
as §3
A HBV standard was used for quantification of extracellular viral DNA and RNA. […] CccDNA was normalized to β-Globin quantification. […]

[3] = system: HepaRG cells; assay: Cytotoxicity, CellTiter-Glo Luminescent Cell Viability Assay; format: cell-based, Human; settings: highest concentration tested 40 microM
Text: as §2
Cytotoxicity was measured in HepaRG cells treated with drugs as in experimental schemes presented if FIG. 1 with the “CellTiter-Glo® Luminescent Cell Viability Assay” from Promega, by following manufacturer's instructions.

[4] = target: SRSF1 (Homo sapiens, UniProt Q07955); settings: cited from earlier work
Sequence of SRSF1 (Q07955 whole entry, species assumed): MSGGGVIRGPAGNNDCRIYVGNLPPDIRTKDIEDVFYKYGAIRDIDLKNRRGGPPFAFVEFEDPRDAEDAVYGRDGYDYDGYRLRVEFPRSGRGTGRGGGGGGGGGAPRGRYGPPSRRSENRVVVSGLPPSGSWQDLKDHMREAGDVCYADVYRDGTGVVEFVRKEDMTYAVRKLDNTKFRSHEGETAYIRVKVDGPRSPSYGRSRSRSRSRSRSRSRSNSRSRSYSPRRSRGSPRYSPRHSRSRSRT

## Cn1ccc(=O)c(C(=O)Nc2nsc3ccc([N+](=O)[O-])cc23)c1 [1C8, 4-pyridinonebenzisothiazole carboxamide]
[1]; 10 microM three times, ELISA
  reduction of secretion of viral antigens (HBs and HBeAg) in cell culture supernatant: 60-70%
[1]; 10 microM three times, qPCR
  reduction of HBV virions (secreted HBV DNA) in cell culture supernatant: 60-70%
[1]; MOI 100 vge/cell, treated three times every 2-3 days with 10 microM
  reduction of the accumulation of intracellular HBV RNA: 60-70%
[2]
  antiviral properties against genotype C virus: retained antiviral properties against this strain, although with a slightly reduced efficacy
[3]
  concentration toxic for cells (viability, CellTiter-Glo): > 40 µM
[4]
  inhibition of SRSF1: does not inhibit

Source: patent US20210052566A1, “METHODS FOR TREATING HEPATITIS B VIRUS (HBV) INFECTION” (INSERM (INSTITUT NATIONAL DE LA SANTÉ ET DE LA RECHERCHE …, priority 2018, published 2021)
